Data: PubChem BioAssay (NCI)
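Cells were grown in 96-well plates and exposed to each compound for 48 hours at five concentrations; endpoints were interpolated linearly between bracketing concentrations, or set to the highest concentration if not reached. The concentration for full growth arrest is given as TGI.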

Experiments:
Assay in all cases: inhibition of tumour cell growth, NCI panel, 48 h
SF-539 CNS = test system: SF-539 CNS
SNB-19 CNS = test system: SNB-19 CNS
A549 NSCLC = test system: A549 NSCLC
ACHN renal = test system: ACHN renal
HT29 colon = test system: HT29 colon
SR leukemia = test system: SR leukemia
OVCAR-3 ovarian = test system: OVCAR-3 ovarian
UACC-62 melanoma = test system: UACC-62 melanoma
MDA-MB-435 = test system: MDA-MB-435
SK-MEL-5 melanoma = test system: SK-MEL-5 melanoma
A498 renal = test system: A498 renal
SK-OV-3 ovarian = test system: SK-OV-3 ovarian
SF-295 CNS = test system: SF-295 CNS
HL-60(TB) leukemia = test system: HL-60(TB) leukemia
DU-145 prostate = test system: DU-145 prostate
MCF7 breast = test system: MCF7 breast
NCI-H23 lung = test system: NCI-H23 lung
RXF 393 renal = test system: RXF 393 renal
IGROV1 ovarian = test system: IGROV1 ovarian
NCI-H226 lung = test system: NCI-H226 lung
SK-MEL-28 melanoma = test system: SK-MEL-28 melanoma
HOP-62 NSCLC = test system: HOP-62 NSCLC
CAKI-1 renal = test system: CAKI-1 renal
TK-10 renal = test system: TK-10 renal
EKVX NSCLC = test system: EKVX NSCLC
UACC-257 melanoma = test system: UACC-257 melanoma
SF-268 CNS = test system: SF-268 CNS
786-0 renal = test system: 786-0 renal
OVCAR-8 ovarian = test system: OVCAR-8 ovarian
MDA-N = test system: MDA-N
UO-31 renal = test system: UO-31 renal
RPMI-8226 leukemia = test system: RPMI-8226 leukemia
U251 CNS = test system: U251 CNS
HS 578T breast = test system: HS 578T breast
M14 melanoma = test system: M14 melanoma
NCI-H460 lung = test system: NCI-H460 lung
KM12 colon = test system: KM12 colon
OVCAR-4 ovarian = test system: OVCAR-4 ovarian
SNB-75 CNS = test system: SNB-75 CNS
SK-MEL-2 melanoma = test system: SK-MEL-2 melanoma
HCT-116 colon = test system: HCT-116 colon
SW-620 colon = test system: SW-620 colon
T-47D breast = test system: T-47D breast
PC-3 prostate = test system: PC-3 prostate
CCRF-CEM leukemia = test system: CCRF-CEM leukemia
LOX IMVI melanoma = test system: LOX IMVI melanoma
K-562 leukemia = test system: K-562 leukemia
OVCAR-5 ovarian = test system: OVCAR-5 ovarian
NCI/ADR-RES ovarian = test system: NCI/ADR-RES ovarian
MOLT-4 leukemia = test system: MOLT-4 leukemia
COLO 205 colon = test system: COLO 205 colon
HCT-15 colon = test system: HCT-15 colon
HCC-2998 colon = test system: HCC-2998 colon
HOP-92 NSCLC = test system: HOP-92 NSCLC
MDA-MB-231 breast = test system: MDA-MB-231 breast
MALME-3M melanoma = test system: MALME-3M melanoma
SN12C renal = test system: SN12C renal

Compound: O=C1c2c(O)cccc2Cc2cccc(O)c21
- TGI (SF-539 CNS): 0.923 µM
- TGI (SNB-19 CNS): 5.39 µM
- TGI (A549 NSCLC): 1.07 µM
- TGI (ACHN renal): 1.1 µM
- TGI (HT29 colon): 1.55 µM
- TGI (SR leukemia): 1.74 µM
- TGI (OVCAR-3 ovarian): 1.97 µM
- TGI (UACC-62 melanoma): 3.07 µM
- TGI (MDA-MB-435): 11.2 µM
- TGI (SK-MEL-5 melanoma): 0.33 µM
- TGI (A498 renal): 4.81 µM
- TGI (SK-OV-3 ovarian): 1.21 µM
- TGI (SF-295 CNS): 0.782 µM
- TGI (HL-60(TB) leukemia): 0.672 µM
- TGI (DU-145 prostate): 0.942 µM
- TGI (MCF7 breast): 0.664 µM
- TGI (NCI-H23 lung): 12.8 µM
- TGI (RXF 393 renal): 1.33 µM
- TGI (IGROV1 ovarian): 1.56 µM
- TGI (NCI-H226 lung): 1.27 µM
- TGI (SK-MEL-28 melanoma): 3.75 µM
- TGI (HOP-62 NSCLC): 1.32 µM
- TGI (CAKI-1 renal): 1.2 µM
- TGI (TK-10 renal): 5.35 µM
- TGI (EKVX NSCLC): 0.572 µM
- TGI (UACC-257 melanoma): 0.653 µM
- TGI (SF-268 CNS): 3.25 µM
- TGI (786-0 renal): 1.76 µM
- TGI (OVCAR-8 ovarian): 1.04 µM
- TGI (MDA-N): 10.2 µM
- TGI (UO-31 renal): 1.15 µM
- TGI (RPMI-8226 leukemia): 1.03 µM
- TGI (U251 CNS): 1.47 µM
- TGI (HS 578T breast): 1.09 µM
- TGI (M14 melanoma): 1.97 µM
- TGI (NCI-H460 lung): 1.31 µM
- TGI (KM12 colon): 1.32 µM
- TGI (OVCAR-4 ovarian): 1.8 µM

Compound: C=C1CN=C(Nc2ccc(F)cc2F)S1
- TGI (SF-539 CNS): > 100 µM
- TGI (SNB-19 CNS): > 100 µM
- TGI (A549 NSCLC): > 100 µM
- TGI (SNB-75 CNS): > 100 µM
- TGI (SK-MEL-2 melanoma): > 100 µM
- TGI (HCT-116 colon): > 100 µM
- TGI (ACHN renal): > 100 µM
- TGI (HT29 colon): > 100 µM
- TGI (SW-620 colon): > 100 µM
- TGI (T-47D breast): > 100 µM
- TGI (PC-3 prostate): > 100 µM
- TGI (CCRF-CEM leukemia): 66.1 µM
- TGI (LOX IMVI melanoma): 49.2 µM
- TGI (K-562 leukemia): > 100 µM
- TGI (SR leukemia): > 100 µM
- TGI (OVCAR-5 ovarian): > 100 µM
- TGI (SK-MEL-5 melanoma): > 100 µM
- TGI (A498 renal): > 100 µM
- TGI (NCI/ADR-RES ovarian): > 100 µM
- TGI (MOLT-4 leukemia): 96.5 µM
- TGI (SK-OV-3 ovarian): > 100 µM
- TGI (SF-295 CNS): > 100 µM
- TGI (HL-60(TB) leukemia): > 100 µM
- TGI (DU-145 prostate): > 100 µM
- TGI (MCF7 breast): > 100 µM
- TGI (NCI-H23 lung): > 100 µM
- TGI (COLO 205 colon): > 100 µM
- TGI (IGROV1 ovarian): > 100 µM
- TGI (SK-MEL-28 melanoma): > 100 µM
- TGI (HOP-62 NSCLC): > 100 µM
- TGI (CAKI-1 renal): > 100 µM
- TGI (TK-10 renal): > 100 µM
- TGI (EKVX NSCLC): > 100 µM
- TGI (UACC-257 melanoma): > 100 µM
- TGI (SF-268 CNS): > 100 µM
- TGI (786-0 renal): > 100 µM
- TGI (OVCAR-8 ovarian): > 100 µM
- TGI (MDA-N): > 100 µM
- TGI (HCT-15 colon): > 100 µM
- TGI (UO-31 renal): > 100 µM
- TGI (HCC-2998 colon): > 100 µM
- TGI (HOP-92 NSCLC): > 100 µM
- TGI (MDA-MB-231 breast): > 100 µM
- TGI (RPMI-8226 leukemia): > 100 µM
- TGI (U251 CNS): > 100 µM
- TGI (HS 578T breast): > 100 µM
- TGI (MALME-3M melanoma): > 100 µM
- TGI (NCI-H460 lung): > 100 µM
- TGI (KM12 colon): > 100 µM
- TGI (OVCAR-4 ovarian): > 100 µM
- TGI (SN12C renal): > 100 µM
